Experimental data as given in patent US20140377189A1, “PULMONARY ADMINISTRATION OF ROTIGOTINE” (MAP Pharmaceuticals, Inc., priority 2013, published 2014).

Test: In situ rotigotine salt screening (precipitate formation in ethanol/HFA 227 solution formulation)
Format: physicochemical
Details: 10% (w/w) ethanol in HFA 227; for Observation Immediate / Observation 1 week at RT / Observation 1 week at 5° C.: 1 mg/mL rotigotine free base with acid; for Observation Immediate: immediately upon preparation; for Observation 1 week at RT: stored 1 week at room temperature; for Observation 1 week at 5° C.: another week at 5° C. after 1 week at RT
Method: Rotigotine, bulk drug substance, was purchased from Chemagis (Perrigo API). A stock solution of rotigotine was prepared by dissolving rotigotine particles in ethanol at 10 mg/mL. With 1.5 mL rotigotine stock solution added to formulation bottles, each formulation bottle contained 15 mg rotigotine. For preparation of acid stock solutions, it was assumed that complete reaction or ion-pairing between rotigotine and acid. Based on the molecular weight and number of anions of each acid as listed in Table 1, acids stock solutions were prepared by dissolving the required amount in ethanol.
Each formulation bottle was filed with 1.5 mL of rotigotine stock solution and 1.0 ml, of acid stock solution. The formulation bottles (PET bottles) were then sealed with continuous valves and vortexed for 30 seconds to mix the solution well. Finally, 17.6 g of 1,1,1,2,3,3,3-heptafluoropropane (HFA227 (Mexichem)) to make a final volume of 15 mL of rotigotine formulation. All the bottles were hand shaken for 10 seconds.
All in situ salt screening samples were made as 1 mg/mL of rotigtine free base in 10% (w/w) ethanol in HFA 227. Acids corresponding to the salt forms in Table 1 were added according to the molar ratio with rotigotine for complete reaction. As 1 mg/mL was the minimal required dose at the time of experiment, all formulations were tested at this level to screen out non-solution salt formulations.
These were the rotigotine citrate, fumarate, succinate, sulfate, tartrate, xinafoate salt formulations. […] rotigotine salt formulations were immediately ruled out as the precipitate formation was not desired. All clear solution samples were stored at room temperature (RT) for 1 week. […] These were rotigotine acetate, benzoate and mesylate salt formulations. These 3 rotigotine salt formulations were also ruled out as precipitate formation is not desired. The rest of the samples remained as clear solutions (stable) at after another week at 5° C.
Out of the 7 acids that remained a clear solution after 1 week of storage, rotigotine maleate was selected as the lead candidate and suitable as a stable solution for oral pulmonary aerosol delivery.

Molecule	Observation Immediate	Observation 1 week at RT	Observation 1 week at 5° C.	stayed in solution formulation at the minimum required concentration (minimum required concentration 1 mg/mL)
CC(=O)O.CCCN(CCc1cccs1)[C@H]1CCc2c(O)cccc2C1 [Acetate, rotigotine acetate]	solution	red precipitate	–	–
rotigotine propionate	solution	solution	solution	–
Tartrate	white precipitate	–	–	–
rotigotine pamoate	solution	solution	solution	–
Fumarate	white precipitate	–	–	–
rotigotine citrate	white precipitate	–	–	–

The remaining lines, values ahead:

Observation Immediate	Observation 1 week at RT	Observation 1 week at 5° C.	stayed in solution formulation at the minimum required concentration (minimum required concentration 1 mg/mL)	Molecule
solution	solution	solution	–	rotigotine palmitate
solution	solution	solution	stayed in solution	rotigotine maleate
solution	solution	solution	–	rotigotine glycolate
solution	solution	solution	–	CC(O)C(=O)O.CCCN(CCc1cccs1)[C@H]1CCc2c(O)cccc2C1 [Lactate, rotigotine lactate]
solution	red precipitate	–	–	Benzoate
white precipitate	–	–	–	O=S(=O)(O)O [Sulfate]
solution	solution	solution	–	rotigotine stearate
